A value given as a limit tells only on which side of the number the result lay.

The first assay deals with T1, HIV-1 protease (Human immunodeficiency virus type 1 group M subtype B, UniProt P04585).
T1 construct: Purified HIV-1 protease was obtained as described above; made in house; host or cells: E. coli K12 L507/pHP10D
As to the kind of experiment: biochemical. To be noted: All values normalized to a positive control; 1 h pre-incubation, 16 h with substrate at room temperature; *concentration of the compound was not increased above the reported concentration. The procedure: A culture of E. coli K12 L507/pHP10D was grown to mid-log phase at 32° C. in LB media containing 12.5 μg/ml tetracycline. The cultivation temperature was quickly elevated to 40° C. to induce gene expression, and the cells were allowed to grow for 2.5 hours at this temperature before the culture was quickly chilled on ice. The cells were centrifuged and the cell pellet was resuspended in 20 mL 50 mmol MES buffer (pH 6.0) containing 1 mmol EDTA, 1 mmol DTT, 1 mmol PMSF and 10% glycerol ("Buffer A"). Cells were lysed by sonication using a Fischer Model 300 Dismembrator and a microtip probe. Following centrifugation at 27,000×g, the supernatant was diluted to a total volume of 60 mL with Buffer A and loaded onto a 2.0×19 cm QAE-Sepharose column (1 mL/min, 4° C.), that had been equilibrated in Buffer A. The column was washed isocratically for 180 min and then eluted with a gradient eluent of 0-1.0M sodium chloride in Buffer A over 120 min. Enzymatic activity was measured by HPLC using the synthetic peptide SQNYPIV as described in Margolin et al., Biochem, Biophys. Res. Commun., 167, 554-560 (1990); the production of the p1 peptide (SQNY) was measured.
The active fractions were combined, made 1.2M in ammonium sulfate, and applied to a 2.0×18 cm hexyl agarose column that had been equilibrated in Buffer A containing 1.2M ammonium sulfate. The sample was loaded at a flow rate of 1 mL/min at 4° C., washed with the equilibration buffer for 240 min (1 mL/min) and then eluted using a reverse linear gradient of 1.2-0M ammonium sulfate in Buffer A for 120 min at the same flow rate. The column was then washed isocratically in Buffer A for 120 min.
The active fractions were combined, concentrated to 10 mL using an Amicon stirred cell with a YM-10 membrane and then applied to a MonoS cation exchange column (1.0×10 cm) that had been equilibrated in Buffer A. The sample was loaded at a flow rate of 1 mL/min at 25° C. After washing isocratically for 30 min, the protease was eluted using a linear gradient of 0-0.45M sodium chloride in Buffer A over 40 min.. The column was washed isocratically in Buffer A containing 0.45M sodium chloride for 30 min.
The active fractions were combined and concentrated to 200 μL using an Amicon stirred cell and a YM-10 membrane and then the protease was applied to a Superose 6 size exclusion column equilibrated in Buffer A containing 0.1M sodium chloride.
The purified peptide was labeled with a fluorescent marker at the C-terminal end for use in the Pandex assay. N^α -Biotin-[…]OH (1.206 g, 0.936 mmol) was dissolved in 100 mL of 0.1M sodium borate, pH 9.5. Then, a solution of 3 g (7.7 mmol) of fluorescein isothiocyanate in 15 mL dimethyl sulfoxide was added to the reaction mixture in 10 equal portions over two hours. The resulting mixture was allowed to react for one hour after the final addition. The solution was adjusted to pH 3 using 5N HCl, resulting in the formation of a precipitate which was removed by centrifugation.
The following buffers and solutions are used in the Fluorescence HIV-1 Protease Inhibitor Assay:
0.05M 4-morpholineethane sulfonic acid, pH 5.5
0.1% solution of Fluoricon Avidin Assay Particles (Avidin conjugated to solid polystyrene beads, 0.6-0.8 microns in diameter in TBSA Buffer
27 IU/mL of purified HIV-1 protease in MES-ALB buffer (1 IU equals the amount of enzyme required to hydrolyze 1 μmole of substrate per minute at 37° C.
To each well of a round bottom, 96-well plate is added 20 μL of the Enzyme Solution followed by 10 μL of the compound to be evaluated in a 20% aqueous dimethylsulfoxide solution. Purified HIV-1 protease was obtained as described above.
For the compound `CC(C)(C)NC(=O)c1ccccc1C[C@@H](O)[C@H](Cc1ccccc1)NC(=O)[C@@H](CC(=O)OCc1ccccc1)NC(=O)OCc1ccccc1` (relative stereo) [Example 9, [2R-(2R *, 3S*, 6R*)]-N-t-Butyl-2-[2-hydroxy-3-phenylmethyl-4-aza-5-oxo-6-N(benzyloxycarbonyl)amino-7-benzyloxycarbonyl]heptyl benzamide], the “Fluorescence Assay IC50” value is over 1 µg/mL. In the case of “[2R-(2R*, 3S*, 6S*)]-N-t-Butyl-2-[2-hydroxy-3-phenylmethyl-4,7-diaza-5,8-dioxo-6-cyanomethyl-9-N(methyl)aza-10-quinolin-2-yl]decyl benzamide [Example 4]”, the “Fluorescence Assay IC50” value is 0.0012 µg/mL.

The assay is the same for the next values; noted with them: read-out: Fluorescence Assay IC8.
On to `CC(C)(C)NC(=O)c1ccccc1C[C@@H](O)[C@H](Cc1ccccc1)NC(=O)[C@@H](CC(=O)OCc1ccccc1)NC(=O)OC(C)(C)C` [Example 11, [2R-(2R *, 3S*, 6S*)]-N-t-butyl-2-[2-hydroxy-3-phenylmethyl-4-aza-5-oxo-6-N(t-butoxycarbonyl)amino-7-benzyloxycarbonyl]heptyl benzamide], for which the IC8 was determined as 1 µg/mL.

Staying with this assay, now noted: read-out: Fluorescence Assay IC50 (converted).
The term IC50 denotes the midpoint of a concentration-inhibition curve. As to `CC(C)(C)NC(=O)c1ccccc1C[C@@H](O)[C@H](Cc1ccccc1)NC(=O)[C@H](CC#N)NC(=O)NCc1cccc2ccccc12` (relative stereo) [Example 1, [2R-(2R*, 3S*, 6S*)]-N-t-Butyl-2-[2-hydroxy-3-phenylmethyl-4,7,9-triaza-5,8-dioxo-6-cyanomethyl-10-naphth-1-yl]decyl benzamide], the half-inhibitory concentration (IC50) is 0.645 nM. Same read-out and setting: under `CN1Cc2ccccc2CC1C(=O)N[C@@H](CC#N)C(=O)N[C@@H](Cc1ccccc1)[C@H](O)Cc1ccccc1C(=O)NC(C)(C)C` (relative stereo) [Example 3, R-(2R *, 3S*, 6S*)-N-t-Butyl-2-[2-hydroxy-3-phenylmethyl-4,7-diaza-5,8-dioxo-6-cyanomethyl-8-(2-methyl-1,2,3,4-tetrahydroisoquinolin-3-yl]octylbenzamide] stands 89.5 nM; under `CN(C)CCNC(=O)C[C@H](NC(=O)c1ccc2ccccc2n1)C(=O)N[C@@H](Cc1ccccc1)[C@H](O)Cc1ccccc1C(=O)NC(C)(C)C` (relative stereo) [Example 15, [2R -(2R*,3S*,6S*)]-N-t-Butyl-2-[2-hydroxy-3-phenylmethyl-4-aza-5,8-dioxo-6-N(quinolin-2-ylcarbonyl)amino-8-N(2-(N, N-dimethylamino)ethyl)amino]octyl benzamide], 2.79 nM; under `CC(C)(C)NC(=O)c1ccccc1C[C@@H](O)[C@H](Cc1ccccc1)NC(=O)[C@H](CC#N)NC(=O)c1ccc2ccccc2n1` [Example 2, [2R-(2R *, 3S*, 6S*)]-N-t-Butyl-2-[2-hydroxy-3-phenylmethyl-4,7-diaza-5,8-dioxo-6-cyanomethyl-8-quinolin-2-yl]octyl benzamide], 1.86 nM. Same read-out and setting: the figure for `CC(C)(C)NC(=O)c1ccccc1C[C@@H](O)[C@H](Cc1ccccc1)NC(=O)[C@H](CC(=O)OCc1ccccc1)NC(=O)OCc1ccccc1` [Example 6, [2R-(2R*, 3S*, 6S*)]-N-t-Butyl-2-[2-hydroxy-3-phenylmethyl-4-aza-5-oxo-6-N(benzyloxycarbonyl)amino-7-benzyloxycarbonyl]heptyl benzamide] is 10.6 nM; for `CC(C)(C)NC(=O)c1ccccc1C[C@@H](O)[C@H](Cc1ccccc1)NC(=O)[C@H](CC(=O)OCc1ccccc1)NC(=O)c1ccc2ccccc2n1` [Example 7, [2R-(2R*,3S*,6S*)]-N-t-Butyl-2-[2-hydroxy-3-phenylmethyl-4-aza-5-oxo-6-N(quinolin-2-ylcarbonyl)amino-7-benzyloxycarbony]heptyl benzamide] it is 0.856 nM.

Consider `CC(C)(C)NC(=O)c1ccccc1C[C@@H](O)[C@H](Cc1ccccc1)NC(=O)[C@@H](CC(=O)OCc1ccccc1)NC(=O)c1ccc2ccccc2n1` [Example 8, [2R-(2R*,3S*,6R*)]-N-t-Butyl-2-[2-hydroxy-3-phenylmethyl-4-aza-5-oxo-6-N(quinolin-2-ylcarbonyl)amino-7-benzyloxycarbonyl]heptyl benzamide], for which the IC50 is over 1430 nM.

`CC(C)(C)NC(=O)c1ccccc1C[C@@H](O)[C@H](Cc1ccccc1)NC(=O)[C@H](CC(=O)OCc1ccccn1)NC(=O)c1ccc2ccccc2n1` [Example 10, [2R-(2R*,3S*,6S*)]-N-t-Butyl-2-[2-hydroxy-3-phenylmethyl-4-aza-5-oxo-6-N(quinolin-2-ylcarbonyl)amino-7-(pyrid-2-ylmethoxycarbonyl)]heptyl benzamide]: the IC50 is 1.85 nM. Take `CONC(=O)C[C@H](NC(=O)c1ccc2ccccc2n1)C(=O)N[C@@H](Cc1ccccc1)[C@H](O)Cc1ccccc1C(=O)NC(C)(C)C` [Example 12, [2R-(2R*, 3S*, 6S*)]-N-t-Butyl-2-[2-hydroxy-3-phenylmethyl-4-aza-5-oxo-6-N(quinolin-2-ylcarbonyl)amino-8-N(methoxy)carbamoyl]heptyl benzamide]: the concentration for half-maximal inhibition (IC50) is 0.782 nM. Same read-out and setting: under `CC(C)(C)NC(=O)c1ccccc1C[C@@H](O)[C@H](Cc1ccccc1)NC(=O)[C@H](CC(=O)NN)NC(=O)c1ccc2ccccc2n1` [Example 13, [2R-(2R*, 3S*, 6S*)]-N-t-Butyl-2-[2-hydroxy-3-phenylmethyl-4-aza-5,8-dioxo-6-N(quinolin-2-ylcarbonyl)amino-8-hydrazino]octyl benzamide] stands 1.12 nM; under `CC(C)(C)NC(=O)c1ccccc1C[C@@H](O)[C@H](Cc1ccccc1)NC(=O)[C@H](CS(N)(=O)=O)NC(=O)c1ccc2ccccc2n1` [Example 14, [2R-(2R*,3S*,6R*)]-N-t-Butyl-2-[2-hydroxy-3-phenylmethyl-4-aza-5-oxo-6-N(quinolin-2-ylcarbonyl)amino-7-aminosulfonyl]heptyl benzamide], 4.18 nM.

For the origin of these results see patent US5491166A, “Inhibitors of HIV protease useful for the treatment of AIDS” (Eli Lilly and Company, priority 1992, dated 1996).
